Experimental data published in article PMC9280689, “Resistance to Powdery Mildew in Qingke Involves the Accumulation of Aromatic Phenolamides Through Jasmonate-Mediated Activation of Defense-Related Genes” (Frontiers in Plant Science, 2022).

Target: T1, HvTBT2 (Hordeum vulgare, UniProt A0A8I6X4Z6)
T1 construct: gene LOC123447140; full-length cDNA in pGEX-6p-1, GST fusion, E. coli BL21(DE3), purified
Test: LC-MS product assay
Type: biochemical
Conditions: acyl donor; amine acceptor 100 μM (which amine not told); 10 mM MgCl2, Tris-HCl pH 7.4, 30 °C
Text: LC-MS product assay on HvTBT2

T1 sequence (A0A8I6X4Z6 entry or part of it): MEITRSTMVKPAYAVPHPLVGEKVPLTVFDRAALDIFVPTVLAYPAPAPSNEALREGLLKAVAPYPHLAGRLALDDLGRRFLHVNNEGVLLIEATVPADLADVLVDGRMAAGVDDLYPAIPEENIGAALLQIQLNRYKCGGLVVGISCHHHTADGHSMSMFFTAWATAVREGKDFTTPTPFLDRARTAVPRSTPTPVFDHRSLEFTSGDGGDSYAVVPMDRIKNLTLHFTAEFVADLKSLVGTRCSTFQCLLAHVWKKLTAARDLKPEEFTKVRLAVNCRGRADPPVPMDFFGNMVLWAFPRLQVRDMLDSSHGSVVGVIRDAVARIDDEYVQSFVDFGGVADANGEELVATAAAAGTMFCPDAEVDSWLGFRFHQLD

COc1cc(/C=C/C(=O)SCCNC(=O)CCNC(=O)[C@H](O)C(C)(C)COP(=O)(O)OP(=O)(O)OC[C@H]2O[C@@H](n3cnc4c(N)ncnc43)[C@H](O)[C@@H]2OP(=O)(O)O)ccc1O [Feruloyl-CoA]
Km: 382 ± 98.3 µM
